Data on 18 compounds can be found in US20230295200A1 (REGENTS OF THE UNIVERSITY OF MICHIGAN, priority 2022, published 2023).

Molecules are shown by their SMILES.

The target of this assay is T1, STAT6 protein (Homo sapiens, UniProt P42226).
T1 sequence (P42226 1-847): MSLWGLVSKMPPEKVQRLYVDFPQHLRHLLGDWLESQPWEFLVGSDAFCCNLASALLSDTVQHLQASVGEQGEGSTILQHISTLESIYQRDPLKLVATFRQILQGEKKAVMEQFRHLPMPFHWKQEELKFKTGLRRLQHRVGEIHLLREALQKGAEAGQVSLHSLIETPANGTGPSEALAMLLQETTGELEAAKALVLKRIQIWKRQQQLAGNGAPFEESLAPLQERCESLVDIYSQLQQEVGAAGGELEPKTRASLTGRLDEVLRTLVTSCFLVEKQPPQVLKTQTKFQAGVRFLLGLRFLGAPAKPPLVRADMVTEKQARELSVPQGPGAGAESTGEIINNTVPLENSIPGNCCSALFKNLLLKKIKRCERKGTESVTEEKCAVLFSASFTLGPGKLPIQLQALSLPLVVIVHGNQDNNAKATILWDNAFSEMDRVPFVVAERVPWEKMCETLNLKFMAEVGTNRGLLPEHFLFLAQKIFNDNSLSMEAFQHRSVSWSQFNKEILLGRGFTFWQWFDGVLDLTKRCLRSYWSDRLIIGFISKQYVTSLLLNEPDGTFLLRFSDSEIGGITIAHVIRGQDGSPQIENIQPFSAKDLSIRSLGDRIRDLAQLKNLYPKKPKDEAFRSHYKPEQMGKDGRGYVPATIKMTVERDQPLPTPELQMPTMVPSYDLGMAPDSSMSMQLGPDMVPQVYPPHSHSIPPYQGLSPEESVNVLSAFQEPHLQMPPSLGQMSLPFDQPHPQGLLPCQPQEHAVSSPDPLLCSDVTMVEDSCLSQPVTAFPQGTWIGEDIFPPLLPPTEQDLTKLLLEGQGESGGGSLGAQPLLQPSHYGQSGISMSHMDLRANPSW
The assay can be described thus: Fluorescence polarization (FP) binding assay, STAT6. Particulars: FP competition, 5 nM fluorescein-labeled tracer, 200 nM protein, PBS pH7.4; read-out: Binding STAT6. The method, boiled down:
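Polarization read after 1 h equilibration at room temperature (preceded by 15 min shaking) of 200 nM STAT5 and/or STAT6 with 5 nM fluorescein tracer. Buffer: PBS pH 7.4 plus 0.01% BGG, 0.01% Tween-20, 2 mM DTT; inhibition constants derived by nonlinear fitting.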
On the technique in general: Fluorescence polarisation rises when a labelled molecule tumbles more slowly, as on binding a larger partner.
On to `O=C(N[C@@H](Cc1ccc(Br)cc1)C(=O)N1CCC[C@H]1C(=O)N1CCO[C@H](c2ccccc2)C1)c1cc2cc(C(F)(F)P(=O)(O)O)ccc2s1` [Compound 273, ((2-(((S)-3-(4-bromophenyl)-1-oxo-1-((S)-2-((R)-2-phenylmorpholine-4-carbonyl)pyrrolidin-1-yl)propan-2-yl)carbamoyl)benzo[b]thiophen-5-yl)difluoromethyl)phosphonic acid], for which the Ki lay in the range of 100 to 1000 nM. For the compound `CN(C)CCC[C@H](NC(=O)c1cc2cc(C(F)(F)P(=O)(O)O)ccc2s1)C(=O)N1CCC[C@H]1C(=O)N1CCO[C@H](c2ccccc2)C1` [Compound 274, ((2-(((S)-5-(dimethylamino)-1-oxo-1-((S)-2-((R)-2-phenylmorpholine-4-carbonyl)pyrrolidin-1-yl)pentan-2-yl)carbamoyl)benzo[b]thiophen-5-yl)difluoromethyl)phosphonic acid], the Ki was 100 to 1000 nM. The value for `CN(C)CC[C@H](NC(=O)c1cc2cc(C(F)(F)P(=O)(O)O)ccc2s1)C(=O)N1CCC[C@H]1C(=O)N1CCO[C@H](c2ccccc2)C1` [Compound 275, ((2-(((S)-4-(dimethylamino)-1-oxo-1-((S)-2-((R)-2-phenylmorpholine-4-carbonyl)pyrrolidin-1-yl)butan-2-yl)carbamoyl)benzo[b]thiophen-5-yl)difluoromethyl)phosphonic acid] was 100 to 1000 nM; that for `NC(=O)CC[C@H](NC(=O)c1cc2cc(C(F)(F)P(=O)(O)O)ccc2s1)C(=O)N1CCC[C@H]1C(=O)N1CCO[C@H](c2ccccc2)C1` [Compound 276, ((2-(((S)-5-amino-1,5-dioxo-1-((S)-2-((R)-2-phenylmorpholine-4-carbonyl)pyrrolidin-1-yl)pentan-2-yl)carbamoyl)benzo[b]thiophen-5-yl)difluoromethyl)phosphonic acid] was 100 to 1000 nM. On to `CC(C)(C)c1ccc(C[C@H](NC(=O)c2cc3cc(C(F)(F)P(=O)(O)O)ccc3s2)C(=O)N2CCC[C@H]2C(=O)N2CCO[C@H](c3ccccc3)C2)cc1` [Compound 277, ((2-(((S)-3-(4-(tert-butyl)phenyl)-1-oxo-1-((S)-2-((R)-2-phenylmorpholine-4-carbonyl)pyrrolidin-1-yl)propan-2-yl)carbamoyl)benzo[b]thiophen-5-yl)difluoromethyl)phosphonic acid], for which the Ki was below 100 nM.

Regarding `O=C(N[C@@H](Cc1ccc(F)c(F)c1)C(=O)N1CCC[C@H]1C(=O)N1CCO[C@H](c2ccccc2)C1)c1cc2cc(C(F)(F)P(=O)(O)O)ccc2s1` [Compound 278, ((2-(((S)-3-(3,4-difluorophenyl)-1-oxo-1-((S)-2-((R)-2-phenylmorpholine-4-carbonyl)pyrrolidin-1-yl)propan-2-yl)carbamoyl)benzo[b]thiophen-5-yl)difluoromethyl)phosphonic acid], the Ki was in the range of 100 to 1000 nM. For the compound `O=C(N[C@H](C(=O)N1CCC[C@H]1C(=O)N1CCO[C@H](c2ccccc2)C1)C1CCCCC1)c1cc2cc(C(F)(F)P(=O)(O)O)ccc2s1` [Compound 279, ((2-(((S)-1-cyclohexyl-2-oxo-2-((S)-2-((R)-2-phenylmorpholine-4-carbonyl)pyrrolidin-1-yl)ethyl)carbamoyl)benzo[b]thiophen-5-yl)difluoromethyl)phosphonic acid], the Ki lay within 100 to 1000 nM. The figure for `NCCC[C@H](NC(=O)c1cc2cc(C(F)(F)P(=O)(O)O)ccc2s1)C(=O)N1CCC[C@H]1C(=O)N1CCO[C@H](c2ccccc2)C1` [Compound 280, ((2-(((S)-5-amino-1-oxo-1-((S)-2-((R)-2-phenylmorpholine-4-carbonyl)pyrrolidin-1-yl)pentan-2-yl)carbamoyl)benzo[b]thiophen-5-yl)difluoromethyl)phosphonic acid] is below 100 nM; for `N#Cc1cccc(C[C@H](NC(=O)c2cc3cc(C(F)(F)P(=O)(O)O)ccc3s2)C(=O)N2CCC[C@H]2C(=O)N2CCO[C@H](c3ccccc3)C2)c1` [Compound 281, ((2-(((S)-3-(3-cyanophenyl)-1-oxo-1-((S)-2-((R)-2-phenylmorpholine-4-carbonyl)pyrrolidin-1-yl)propan-2-yl)carbamoyl)benzo[b]thiophen-5-yl)difluoromethyl)phosphonic acid] it is below 100 nM; for `O=C(N[C@@H](Cc1cccc([N+](=O)[O-])c1)C(=O)N1CCC[C@H]1C(=O)N1CCO[C@H](c2ccccc2)C1)c1cc2cc(C(F)(F)P(=O)(O)O)ccc2s1` [Compound 282, (difluoro(2-(((S)-3-(3-nitrophenyl)-1-oxo-1-((S)-2-((R)-2-phenylmorpholine-4-carbonyl)pyrrolidin-1-yl)propan-2-yl)carbamoyl)benzo[b]thiophen-5-yl)methyl)phosphonic acid] it is below 100 nM.

As to `Cc1cccc(C[C@H](NC(=O)c2cc3cc(C(F)(F)P(=O)(O)O)ccc3s2)C(=O)N2CCC[C@H]2C(=O)N2CCO[C@H](c3ccccc3)C2)c1` [Compound 283, (difluoro(2-(((S)-1-oxo-1-((S)-2-((R)-2-phenylmorpholine-4-carbonyl)pyrrolidin-1-yl)-3-(m-tolyl)propan-2-yl)carbamoyl)benzo[b]thiophen-5-yl)methyl)phosphonic acid], the Ki fell in the range of 100 to 1000 nM. The value for `COc1ccc(C[C@H](NC(=O)c2cc3cc(C(F)(F)P(=O)(O)O)ccc3s2)C(=O)N2CCC[C@H]2C(=O)N2CCO[C@H](c3ccccc3)C2)cc1` [Compound 284, (difluoro(2-(((S)-3-(4-methoxyphenyl)-1-oxo-1-((S)-2-((R)-2-phenylmorpholine-4-carbonyl)pyrrolidin-1-yl)propan-2-yl)carbamoyl)benzo[b]thiophen-5-yl)methyl)phosphonic acid] was 100 to 1000 nM.

`O=C(N[C@@H](Cc1ccc2ccccc2c1)C(=O)N1CCC[C@H]1C(=O)N1CCO[C@H](c2ccccc2)C1)c1cc2cc(C(F)(F)P(=O)(O)O)ccc2s1` [Compound 285, (difluoro(2-(((S)-3-(naphthalen-2-yl)-1-oxo-1-((S)-2-((R)-2-phenylmorpholine-4-carbonyl)pyrrolidin-1-yl)propan-2-yl)carbamoyl)benzo[b]thiophen-5-yl)methyl)phosphonic acid]: the Ki lay in the range of 100 to 1000 nM. The figure for `O=C(N[C@@H](Cc1nc2ccccc2s1)C(=O)N1CCC[C@H]1C(=O)N1CCO[C@H](c2ccccc2)C1)c1cc2cc(C(F)(F)P(=O)(O)O)ccc2s1` [Compound 286, ((2-(((S)-3-(benzo[d]thiazol-2-yl)-1-oxo-1-((S)-2-((R)-2-phenylmorpholine-4-carbonyl)pyrrolidin-1-yl)propan-2-yl)carbamoyl)benzo[b]thiophen-5-yl)difluoromethyl)phosphonic acid] is 100 to 1000 nM; for `O=C(N[C@@H](Cc1cccs1)C(=O)N1CCC[C@H]1C(=O)N1CCO[C@H](c2ccccc2)C1)c1cc2cc(C(F)(F)P(=O)(O)O)ccc2s1` [Compound 287, (difluoro(2-(((S)-1-oxo-1-((S)-2-((R)-2-phenylmorpholine-4-carbonyl)pyrrolidin-1-yl)-3-(thiophen-2-yl)propan-2-yl)carbamoyl)benzo[b]thiophen-5-yl)methyl)phosphonic acid] it is 100 to 1000 nM. For `O=C(N[C@@H](CCc1ccccc1)C(=O)N1CCC[C@H]1C(=O)N1CCO[C@H](c2ccccc2)C1)c1cc2cc(C(F)(F)P(=O)(O)O)ccc2s1` [Compound 288, (difluoro(2-(((S)-1-oxo-4-phenyl-1-((S)-2-((R)-2-phenylmorpholine-4-carbonyl)pyrrolidin-1-yl)butan-2-yl)carbamoyl)benzo[b]thiophen-5-yl)methyl)phosphonic acid], the Ki was in the range of 100 to 1000 nM. The figure for `O=C(N[C@@H](CCCc1ccccc1)C(=O)N1CCC[C@H]1C(=O)N1CCO[C@H](c2ccccc2)C1)c1cc2cc(C(F)(F)P(=O)(O)O)ccc2s1` [Compound 289, (difluoro(2-(((S)-1-oxo-5-phenyl-1-((S)-2-((R)-2-phenylmorpholine-4-carbonyl)pyrrolidin-1-yl)pentan-2-yl)carbamoyl)benzo[b]thiophen-5-yl)methyl)phosphonic acid] is below 100 nM. For the compound `O=C(N[C@@H](CC1CCNCC1)C(=O)N1CCC[C@H]1C(=O)N1CCO[C@H](c2ccccc2)C1)c1cc2cc(C(F)(F)P(=O)(O)O)ccc2s1` [Compound 290, (difluoro(2-(((S)-1-oxo-1-((S)-2-((R)-2-phenylmorpholine-4-carbonyl)pyrrolidin-1-yl)-3-(piperidin-4-yl)propan-2-yl)carbamoyl)benzo[b]thiophen-5-yl)methyl)phosphonic acid], the Ki was in the range of 100 to 1000 nM.
